# No end group written: not given here.
# What was measured:
# 16HBE cells [1] = test: TER measurement of tight junction disruption in 16HBE cells; type: cell-based, human; conditions: 12 and 96 μM, over 24 hours
# Protocol: PHFK were isolated from discarded foreskin tissue. Isolation and propagation procedures for both PHFK and 16HBE cells were done as previously described (Poumay, Roland, Leclercq-Smekens, & Leloup, 1994; Saatian et al., 2013).
# 10 mgs of synthesized TJDP (RS SYNTHESIS) was dissolved in 100 μl of DMSO (SIGMA). Dissolved peptide was then diluted in pre-warmed (55 ° C.) DMSO/PLURONIC F127® (SPECTRUM) solution formulated in PBS (0.6% / 0.12%, respectively). This solution was heated at 55° C. for 30 minutes then homogenized into detergent using a water bath sonicator (BRANSON 2200) for 10 minutes and vortexed for 1 minute. Peptide was stored at 4° C. until use.
# TER and paracellular flux were done as previously published (De Benedetto, Rafaels, et al., 2011). […] 2 μM of fluorescently-labeled antibody (palivizumab) was added to cells after 24 hours of exposure to TJDP and paracellular flux was measured 30 minutes and 18 hours later.
# Initial experiments employed the human bronchial epithelial cell line, 16HBE since this cell line is known for its robust TJ formation (Saatian et al., 2013). […] The honeycomb fluorescence pattern of these proteins on the cell surface is a hallmark of a barrier competent TJ (Furuse, Fujita, Hiiragi, Fujimoto, & Tsukita, 1998; Furuse et al., 1993). […] The antibody diffusion was measured at 30 min to reduce the likelihood that active transcellular transport was measured.
# [2] = tested on: primary human foreskin keratinocytes (PHFK); test: WST-1 cell viability assay in PHFK; type: cell-based
# Protocol: (§1) For cytotoxicity measurements, cells were plated at a density of 75,000 cells/well in a 96-well plate and grown to confluence (2 days). Cells were then exposed to vehicle or TJDP and viability was measured at 24, 48 and 96 hours. WST-1 reagent (ROCHE) was diluted 20-fold into each well, and cells were incubated at 37° C. Duplicate readings were taken at 0.5 and 1 hour after addition using a THERMO MULTISKAN EX plate reader (A450—background A620). Media only wells were subtracted and values were normalized to media treated controls.
# 16HBE cells [3] = test: WST-1 cell viability assay in 16HBE cells; type: cell-based, human; conditions: 50 μM, highest concentration tested
# Protocol: as §1
substance,measurement,setting,value
(FKFE)2,effect on TER values (control peptide),16HBE cells [1],did not affect TER values
SILTGVSTLDQSLKQLSNFSQAVSTQSSR [Peptide 2],toxicity (WST-1),"[2]; 30 μM, p<0.05",Modest toxicity
same,cell death (WST-1),[2]; lower concentrations with robust inhibition of TJ formation,no appreciable cell death
same,viability (WST-1),16HBE cells [3],no loss of viability
SSVSQSTGQIQSKVFDSLLNLSSTLQATR [Peptide 1],viability (WST-1),16HBE cells [3],no loss of viability
